# “Also recorded” adds a separate entry of the source.
# Experiments:
# recombinant rat DGKα [1] = molecular target: T1, recombinant rat DGKα (Rattus norvegicus, UniProt P51556); assay: ADP-Glo luminescent ADP detection assay; format: cell-based; conditions: 1 hr, HEK293T cells expressing recombinant rat DGKα
# T1 construct: expressed in transfected cells; host or cells: HEK293T
# Protocol: (§1) T-cells require endogenous H2S to activate and proliferate. Cystathionine β-synthase (CBS) and Cystathionine γ-lyase (CSE) are two proteins responsible for generating H2S, and previous studies have shown how knockdown of these proteins can drastically impair T-cell function. We initially tested if DGKα was affected by sulfur donors in a recombinant system. Thus, HEK293T cells expressing recombinant rat DGKα were treated with Na2S4 for 1 hr for luminescent ADP detection assay (ADP-Glo) and ABPP experiments. The activity of the rat isoform in our ADP-Glo™ assay (Promega Corporation) decreased by 40% at 10 μM 30% at 1 μM of the sulfur donor.
# DGK [2] = assay: Substrate assay (ADP-Glo) on second DGK isoform; format: cell-based; conditions: tested in a similar manner as DGKα
# recombinant rat DGKα [3] = molecular target: T1, recombinant rat DGKα; assay: Competitive ABPP gel assay using TH071; format: binding; conditions: Na2S4 1 hr, TH071 as probe
# Protocol: (§2) Continuing with the benzimidazole azetidine, we appended different alkyne tags via reductive amination or HATU coupling to observe the effects of N-substituents on the ring (Scheme 1 above). Soluble and membrane HEK293T cell proteomes were treated with 25 μM of azetidine compounds for one hour before addition of rhodamine via CLICK chemistry, i.e., copper catalyzed azide-alkyne cycloaddition (CuAAC). After the proteins were resolved via SDS-PAGE, we discovered a robust and unique binding profile from the azetidine probes (FIG. 2 and FIG. 3).
# as §1
# [4] = tested on: Soluble and membrane HEK293T cell proteomes; assay: Gel assay (gel ABPP): protein binding, rhodamine CuAAC, SDS-PAGE fluorescence; set-up: species or system human; conditions: 25 μM, one hour
# Protocol: (§3) FIG. 2. Structure activity relationship studies of some azetidine compounds of the present disclosure and their reactivity. Cell lysates were incubated with the indicate azetidine compounds for 1 hr for gel experiments and 3 hrs for LC-MS/MS experiments. Rhodamine or desthiobiotin tags were appended to the probe for gel and mass spectrometry experiments, respectively, by copper-catalyzed azide-alkyne cycloaddition, i.e., CLICK chemistry.
# as §2
# DGK [5] = assay: Gel labeling of second DGK isoform by probe; format: binding; conditions: gel assay
# Protocol: as §2, §1
# [6] = molecular target: recombinant mammalian DGKα (Rattus norvegicus, UniProt P51556); assay: LC-MS/MS enrichment of azetidine-bound peptides on recombinant DGKα; format: binding
# recombinant mammalian DGKα, sequence (P51556 whole entry, the tested form may be a part): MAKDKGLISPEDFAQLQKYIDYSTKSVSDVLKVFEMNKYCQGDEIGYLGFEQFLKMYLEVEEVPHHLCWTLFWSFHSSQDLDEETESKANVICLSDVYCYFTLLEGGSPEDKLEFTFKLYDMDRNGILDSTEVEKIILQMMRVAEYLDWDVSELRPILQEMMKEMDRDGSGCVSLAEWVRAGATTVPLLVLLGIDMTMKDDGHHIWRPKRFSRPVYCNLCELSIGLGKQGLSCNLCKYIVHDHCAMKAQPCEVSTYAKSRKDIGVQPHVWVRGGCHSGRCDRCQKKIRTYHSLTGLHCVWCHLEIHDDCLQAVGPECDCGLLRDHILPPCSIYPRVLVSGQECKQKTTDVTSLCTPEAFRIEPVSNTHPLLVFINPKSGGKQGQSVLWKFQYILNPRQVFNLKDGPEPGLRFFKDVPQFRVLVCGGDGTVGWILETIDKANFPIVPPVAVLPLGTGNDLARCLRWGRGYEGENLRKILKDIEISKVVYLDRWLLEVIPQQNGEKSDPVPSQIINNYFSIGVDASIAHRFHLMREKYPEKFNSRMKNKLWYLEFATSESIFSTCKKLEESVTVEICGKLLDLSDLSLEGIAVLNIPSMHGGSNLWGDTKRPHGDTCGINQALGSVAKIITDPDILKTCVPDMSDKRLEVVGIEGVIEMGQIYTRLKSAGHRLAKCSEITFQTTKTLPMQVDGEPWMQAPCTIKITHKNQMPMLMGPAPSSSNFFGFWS
# Protocol: (§4) Next, isotopically labeled proteins were obtained through routine procedures using labeled amino acids, and the proteins were then reacted with TH071 for 3 hrs before click chemistry with desthiobiotin azide for 2 hours. Proteins were digested by trypsin into peptides before azetidine-bound peptides were enriched via affinity chromatography. Eluted peptides were analyzed by high resolution LC-MS/MS using a top 10 data-dependent acquisition (DDA). An added mass of 631.3858 Da was used to search for azetidine modifications to amino acid residues. Peptides were quantified between samples by measuring the integration of MS1 peaks between heavy and light peptides, and were sequenced by manual verification of MS2 fragmentation spectra. […] Sulfhydration modifications are a form of cysteine oxidation after the reaction with H2S to form a persulfide (S—SH).
# Due to the lipophilic nature of azetidines, we also tested TH071 on recombinant mammalian DGKα and enriched for four peptides that were unique to this azetidine compound. Of these sites, two are located adjacent to the active site, one within the catalytic domain, and another in the zinc finger domain. […] DGKs […] the interconversion of diacylglycerol (DAG) to phosphatidic acid (PA). […]
# HEK lysates = assay: LC-MS/MS identification of azetidine-tagged proteins/peptides (desthiobiotin azide enrichment); format: binding, human
# Protocol: as §3
# Our initial attempts to enrich for azetidine-bound peptides were not optimal when we treated HEK lysates with only 25 μM of azetidine compound, illustrated by TH071. While we could easily observe protein bands by gel fluorescence, we were not saturating the proteome.
# as §4
# [7] = Evaluation of ring-opening under biological conditions with cysteine (LC-MS/MS); format: physicochemical; conditions: cysteine 1.5 mmol eq., 37° C., 24 hrs, PBS and DMF (5:1)
# Protocol: (§5) An exemplary azetidine compound (RLM207) was dissolved in deuterated PBS with either cysteine (1.5 mmol eq.) or glutathione (1.5 mmol eq.), and incubated at 37° C. for 24 hrs in phosphate-buffered saline and DMF (5:1). To observe if any products formed between the RLM207 and biological nucleophiles, high-resolution LC-MS/MS was used to analyze the two reactions. Samples were desalted on a STAGE-Tip C^18 column and dissolved in mobile phase A (0.1% formic acid) for LC-MS/MS analysis. […] Thus, at 24.46 min, there appeared a peak with an M+1 mass of 547.2336 m/z corresponding to the covalent product.
# (§6) Ring-opening reactions of azetidines typically employ harsh conditions that are not amenable to biological samples, such as strong acids and organic solvents^12-15. Our discovery was the first indication that azetidines form covalent products with a tripeptide.
# [8] = Evaluation of ring-opening under biological conditions with glutathione (LC-MS/MS); format: physicochemical; conditions: glutathione 1.5 mmol eq., 37° C., 24 hrs, PBS and DMF (5:1), MS2
# Protocol: as §5, §6
# T1 sequence (P51556 whole entry): as the sequence (P51556 whole entry, the tested form may be a part) above
smiles,measurement,setting,value
[Na+].[Na+].[S-]SS[S-] [Na2S4],decrease of DGKα activity,recombinant rat DGKα [1]; 1 μM sulfur donor,30%
same,decrease of DGKα activity,recombinant rat DGKα [1]; 10 μM sulfur donor,40%
same,effect on DGK activity in substrate assay,DGK [2],showed no effect
same,effect of sulfur donor on TH071 labeling of DGKα (competitive ABPP),recombinant rat DGKα [3],these results were recapitulated
C#CCCCN1CC(c2ccc(F)cc2)C1 [TH069],azetidine reactivity / protein binding (probe labeling) in gel assay,[4],most reactive
C#CCCCN1CCC1c1ccccc1F (stereo not shown) [TH074],azetidine reactivity / protein binding (probe labeling) in gel assay,[4],could not recover probe labeling
C#CCCCN1CC(c2cccc(F)c2)C1 [TH070],azetidine reactivity / protein binding (probe labeling) in gel assay,[4],least reactive
C#CCCCN1CCC1c1cccc(F)c1 (stereo not shown) [TH073],azetidine reactivity / protein binding (probe labeling) in gel assay,[4],could not recover probe labeling
C#CCCCN1CC(c2ccccc2F)C1 [TH071],azetidine reactivity / protein binding (probe labeling) in gel assay,[4],most reactive; also recorded: could not recover probe labeling; also recorded: displayed the best reactivity
same,probe labeling of DGK protein,DGK [5],failed to label the protein
same,number of enriched peptides unique to the azetidine compound,[6],four
same,enrichment of azetidine-bound peptides,"HEK lysates; 25 μM, HEK lysates",not optimal
same,identification of azetidine-tagged proteins by LC-MS/MS,"HEK lysates; 0.5 mM TH071, 3 hrs, HEK lysates",identified multiple azetidine-tagged proteins
same,residue type modified by the azetidine compound,"HEK lysates; MS2 site localisation, FIG. 5",binds to cysteine residues
C#CCCCN1CC(c2nc3ccccc3[nH]2)C1 [RLM207],product formation between azetidine and cysteine,[7],no change was observed
same,product formation between azetidine and glutathione (ring-opening),[8],had bound to the cysteine of glutathione

# Reference: patent US12624020B2, “Compositions and methods for preparing and using azetidines” (University of Virginia Patent Foundation, priority 2018, dated 2026)
